Test [1] concerns the target T1, Dual specificity mitogen-activated protein kinase kinase 7 (Homo sapiens, UniProt O14733).
T1 sequence (O14733 whole entry): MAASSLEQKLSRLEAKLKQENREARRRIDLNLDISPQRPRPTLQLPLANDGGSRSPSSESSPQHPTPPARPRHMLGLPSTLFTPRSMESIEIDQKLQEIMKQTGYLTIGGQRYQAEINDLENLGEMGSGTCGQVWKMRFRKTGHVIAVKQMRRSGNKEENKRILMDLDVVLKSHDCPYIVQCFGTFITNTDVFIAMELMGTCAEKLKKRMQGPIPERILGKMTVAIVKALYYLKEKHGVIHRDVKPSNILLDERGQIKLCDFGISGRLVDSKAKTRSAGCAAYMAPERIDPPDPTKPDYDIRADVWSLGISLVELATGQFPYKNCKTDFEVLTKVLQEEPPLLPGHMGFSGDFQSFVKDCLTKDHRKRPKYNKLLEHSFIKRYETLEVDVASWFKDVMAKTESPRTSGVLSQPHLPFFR
The test is described as follows: Inhibition of GST-tagged human MKK7 expressed in Escherichia coli (BL21(DE3) pLysS) co-expressing human MEKK catalytic domain using biotinylated and GST-tagged rat GST-KN-SAPKalpha substrate incubated for 1 hr by time-resolved fluorescence based assay.

Test [2] has as its system Mus musculus. As to the kind of experiment: Inhibition of anti-CD3 antibody-induced IL2 production in Balb/c mouse dosed intravenously 5 mins before anti-CD3 antibody injection and measured 2 hrs post-challenge by ELISA. The format is functional, organism-based. A general note: ELISA stands for enzyme-linked immunosorbent assay.
Test [3] relates to Mus musculus. As to the kind of experiment: Inhibition of anti-CD3 antibody-induced IL4 production in Balb/c mouse dosed intravenously 5 mins before anti-CD3 antibody injection and measured 2 hrs post-challenge by ELISA. The test is classed as functional, organism-based.
For test [4], the system named is Mus musculus. The test is described as follows: Inhibition of anti-CD3 antibody-induced IFNgamma production in Balb/c mouse dosed intravenously 5 mins before anti-CD3 antibody injection and measured 2 hrs post-challenge by ELISA. The test is classed as functional, organism-based.

Molecules are shown by their SMILES. Calls of active or inactive are those of the source. No rule for the calls is given here.

A word on the IC50: it is the concentration that inhibits the measured activity by half. In test [1], `NC(=O)c1ccc2[nH]c3nc(N)nc(N4CCCCC4)c3c2c1` showed an IC50 below 1000 nM. For the same compound, the inhibition entry in the test with Mus musculus [2], with Mus musculus [3] and in the test with Mus musculus [4] was “Active” in each case.

For `Nc1nc(N2CCC(O)CC2)c2c(n1)[nH]c1ccc(O)cc12`, the IC50 in test [1] is below 1000 nM. The inhibition entry in the test on Mus musculus [2], with Mus musculus [3] and in the test on Mus musculus [4] was “Active” throughout.

`OCC1CCCN(c2ncnc3[nH]c4ccc(O)cc4c23)C1` (centres undefined): the IC50 in test [1] is below 1000 nM. For the same compound, the inhibition entry with Mus musculus [2], in the test on Mus musculus [3] and in the test on Mus musculus [4] was “Active” each time.

With `COCCNc1ncnc2[nH]c3ccc(O)cc3c12`, in test [1], the IC50 is below 1000 nM. Further, the inhibition entry with Mus musculus [2], with Mus musculus [3] and in the test on Mus musculus [4] was “Active” throughout.

Compound `NC(=O)c1ccc2[nH]c3ncnc(N4CCC(C(=O)O)CC4)c3c2c1` gave an IC50 in test [1] below 1000 nM. Also, the inhibition entry with Mus musculus [2], in the test with Mus musculus [3] and in the test on Mus musculus [4] was “Active” in each case.

On to `CC1CCCN(c2ncnc3[nH]c4ccc(O)cc4c23)C1` (centres undefined), for which the IC50 in test [1] is below 1000 nM. Further, the inhibition result in the test with Mus musculus [2], with Mus musculus [3] and with Mus musculus [4] was “Active” throughout.

As to `Cc1nc(NC(C)CO)c2c(n1)[nH]c1ccc(OCc3ccccc3)cc12` (centres undefined), the IC50 in test [1] is below 1000 nM. In addition, the inhibition result with Mus musculus [2], in the test with Mus musculus [3] and in the test on Mus musculus [4] was “Active” in each case.

For the compound `NC(=O)c1ccc2[nH]c3ncnc(NC4CCCC4)c3c2c1`, in test [1], the IC50 was below 1000 nM. Besides, the inhibition entry in the test with Mus musculus [2], in the test with Mus musculus [3] and in the test with Mus musculus [4] was “Active” each time.

As to `COc1ccc2[nH]c3nc(N)nc(N4CCOCC4)c3c2c1`, the IC50 in test [1] was below 1000 nM. In addition, the inhibition entry in the test with Mus musculus [2], in the test with Mus musculus [3] and with Mus musculus [4] was “Active” in each case.

As to `Cc1nc(NCCO)c2c(n1)[nH]c1ccc(O)cc12`, the IC50 in test [1] came out at 1000 nM. The inhibition result in the test on Mus musculus [2], with Mus musculus [3] and in the test on Mus musculus [4] was “Active” throughout.

In test [1], `Oc1ccc2[nH]c3ncnc(NCCc4c[nH]cn4)c3c2c1` gave an IC50 below 1000 nM. Further, the inhibition entry with Mus musculus [2], with Mus musculus [3] and with Mus musculus [4] was “Active” each time.

For `Cc1nc(N2CCC(CO)CC2)c2c(n1)[nH]c1ccc(O)cc12`, the IC50 in test [1] was 1000 nM. Besides, the inhibition entry with Mus musculus [2], in the test with Mus musculus [3] and in the test with Mus musculus [4] was “Active” in each case.

In the case of `Cc1nc(N2CCOCC2)c2c(n1)[nH]c1ccc(O)cc12`, in test [1], the IC50 was determined as 1000 nM. Further, the inhibition result with Mus musculus [2], with Mus musculus [3] and with Mus musculus [4] was “Active” throughout.

In test [1], `CC(CO)Nc1ncnc2[nH]c3ccc(C(N)=O)cc3c12` (centres undefined) showed a 50% inhibitory concentration (IC50) below 1000 nM. Also, the inhibition result in the test with Mus musculus [2], in the test with Mus musculus [3] and in the test on Mus musculus [4] was “Active” throughout.

In test [1], `Cc1nc(N2CCCC(CO)C2)c2c(n1)[nH]c1ccc(O)cc12` (centres undefined) showed an IC50 below 1000 nM. In addition, the inhibition result in the test with Mus musculus [2], in the test with Mus musculus [3] and in the test with Mus musculus [4] was “Active” each time.

Turning to `NCCCNc1ncnc2[nH]c3ccc(C(N)=O)cc3c12`, the IC50 in test [1] was below 1000 nM. Also, the inhibition result in the test on Mus musculus [2], in the test on Mus musculus [3] and in the test with Mus musculus [4] was “Active” throughout.

For the compound `CNC1CCN(c2ncnc3[nH]c4ccc(C(N)=O)cc4c23)C1` (centres undefined), the IC50 in test [1] is below 1000 nM. The inhibition entry in the test with Mus musculus [2], with Mus musculus [3] and in the test on Mus musculus [4] was “Active” each time.

Turning to `Oc1ccc2[nH]c3ncnc(N4CCC(O)C4)c3c2c1` (centres undefined), the IC50 in test [1] was below 1000 nM. The inhibition result with Mus musculus [2], with Mus musculus [3] and in the test on Mus musculus [4] was “Active” throughout.

In the case of `CC(=O)NC1CCN(c2ncnc3[nH]c4ccc(C(N)=O)cc4c23)CC1`, the IC50 in test [1] is below 1000 nM. Moreover, the inhibition result in the test with Mus musculus [2], with Mus musculus [3] and with Mus musculus [4] was “Active” in each case.

On to `NC(=O)c1ccc2[nH]c3ncnc(N4CCCC4)c3c2c1`, for which, in test [1], the IC50 is below 1000 nM. Moreover, the inhibition entry in the test with Mus musculus [2], in the test with Mus musculus [3] and in the test on Mus musculus [4] was “Active” in each case.

In test [1], `NC(=O)c1ccc2[nH]c3ncnc(N4CCCCC4)c3c2c1` registered an IC50 below 1000 nM. The inhibition result in the test with Mus musculus [2], in the test with Mus musculus [3] and in the test on Mus musculus [4] was “Active” throughout.

As for `Oc1ccc2[nH]c3ncnc(N4CCNCC4)c3c2c1`, in test [1], the IC50 is below 1000 nM. For the same compound, the inhibition entry in the test with Mus musculus [2], in the test with Mus musculus [3] and in the test with Mus musculus [4] was “Active” throughout.

The compound `Cc1nc(N2CCC(C)CC2)c2c(n1)[nH]c1ccc(O)cc12` showed an IC50 in test [1] below 1000 nM. Besides, the inhibition entry with Mus musculus [2], with Mus musculus [3] and with Mus musculus [4] was “Active” throughout.

Compound `Nc1nc(NCCN2CCCC2)c2c(n1)[nH]c1ccc(O)cc12` came in with an IC50 in test [1] above 10000 nM. For the same compound, the inhibition result in the test with Mus musculus [2], with Mus musculus [3] and with Mus musculus [4] was “Active” each time.

With `CC1CC(C)CN(c2ncnc3[nH]c4ccc(C(N)=O)cc4c23)C1` (centres undefined), the IC50 in test [1] was below 1000 nM. For the same compound, the inhibition result in the test with Mus musculus [2], in the test on Mus musculus [3] and in the test on Mus musculus [4] was “Active” each time.

Regarding `Oc1ccc2[nH]c3ncnc(NC4CCCCC4)c3c2c1`, the IC50 in test [1] was below 1000 nM. For the same compound, the inhibition result in the test on Mus musculus [2], in the test on Mus musculus [3] and with Mus musculus [4] was “Active” each time.

As to `Oc1ccc2[nH]c3ncnc(N4CCCCCC4)c3c2c1`, the IC50 in test [1] was below 1000 nM. Besides, the inhibition entry with Mus musculus [2], with Mus musculus [3] and in the test with Mus musculus [4] was “Active” each time.

Consider `Cc1ccc2[nH]c3nc(N)nc(N4CCCCC4)c3c2c1`, for which, in test [1], the concentration for half-maximal inhibition (IC50) was below 1000 nM. Besides, the inhibition entry in the test on Mus musculus [2], with Mus musculus [3] and in the test with Mus musculus [4] was “Active” each time.

Take `Oc1ccc2[nH]c3ncnc(N[C@H]4CC[C@H](O)CC4)c3c2c1`: the IC50 in test [1] is below 1000 nM. Moreover, the inhibition entry in the test with Mus musculus [2], in the test with Mus musculus [3] and in the test with Mus musculus [4] was “Active” throughout.

`OCCCCN1CCN(c2ncnc3[nH]c4ccc(O)cc4c23)CC1` displayed an IC50 in test [1] below 1000 nM. The inhibition entry in the test on Mus musculus [2], in the test with Mus musculus [3] and in the test with Mus musculus [4] was “Active” each time.

As for `CN(c1ncnc2[nH]c3ccc(O)cc3c12)C1CCCCC1`, the IC50 in test [1] was below 1000 nM. Besides, the inhibition result with Mus musculus [2], in the test with Mus musculus [3] and in the test on Mus musculus [4] was “Active” in each case.

The values are drawn from ChEMBL document CHEMBL3714742, “Pyrimido (4,5-b) indole derivatives” (2003).
